Several values for one entry are separate records, joined by “and”; a condition that tells them apart may be missing. Equal values may be shown once.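 Where inhibition never reached the appropriate level, the endpoint shown equals the highest concentration tested. Otherwise, values were interpolated linearly from a five-concentration, 48-hour dose response in 96-well plates. GI50 = concentration required for 50% inhibition of growth. The concentration for full growth arrest is given as TGI.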
How the values were obtained:
Experiment in all cases: DTP human tumour cell line panel, 48 h
UO-31 renal = test system: UO-31 renal
LOX IMVI melanoma = test system: LOX IMVI melanoma
MALME-3M melanoma = test system: MALME-3M melanoma
SF-539 CNS = test system: SF-539 CNS
UACC-62 melanoma = test system: UACC-62 melanoma
NCI-H226 lung = test system: NCI-H226 lung
K-562 leukemia = test system: K-562 leukemia
KM12 colon = test system: KM12 colon
SF-295 CNS = test system: SF-295 CNS
BT-549 breast = test system: BT-549 breast

## Cc1cc2c(=O)cc(-c3ccc(Cl)cc3Cl)oc2c(C(=O)O)c1C
UO-31 renal
  TGI: > 100 µM
LOX IMVI melanoma
  TGI: > 100 µM
MALME-3M melanoma
  TGI: > 100 µM
SF-539 CNS
  TGI: > 100 µM
UACC-62 melanoma
  TGI: > 100 µM
NCI-H226 lung
  TGI: > 100 µM
K-562 leukemia
  TGI: > 100 µM
KM12 colon
  TGI: > 100 µM
SF-295 CNS
  TGI: > 100 µM

## Nc1cc2c(c3ccccc13)C(CCl)CN2C(=O)c1cc2cc(NC(=O)c3cc4ccccc4o3)ccc2[nH]1 (stereo not given)
LOX IMVI melanoma
  GI50: > 0.11 µM
  TGI: 256 µM
MALME-3M melanoma
  GI50: > 0.11 µM
  TGI: 0.00771 µM and < 0.11 µM
UACC-62 melanoma
  TGI: 0.0206 µM
KM12 colon
  GI50: > 0.11 µM
  TGI: 0.0235 µM and < 0.11 µM
BT-549 breast
  TGI: 0.00708 µM

## N#CC1(C#N)C2C=CC(C3CC=CC32)C1(C#N)C#N (stereo not given)
UO-31 renal
  GI50: 1.07 µM
  TGI: 3.67 µM and 1.85 µM
LOX IMVI melanoma
  TGI: 18.6 µM
MALME-3M melanoma
  GI50: 6.13 µM
  TGI: 6.16 µM and 13.1 µM
SF-539 CNS
  TGI: 17.2 µM
UACC-62 melanoma
  TGI: 16.9 µM
NCI-H226 lung
  TGI: > 50 µM
K-562 leukemia
  GI50: 1.01 µM
  TGI: 5.83 µM and 3.38 µM
SF-295 CNS
  TGI: > 50 µM

## CC(=O)Nc1ccc(S(=O)(=O)N/N=C/c2cc(I)cc([N+](=O)[O-])c2O)cc1
UO-31 renal
  TGI: > 100 µM
LOX IMVI melanoma
  TGI: > 100 µM
MALME-3M melanoma
  TGI: > 100 µM
UACC-62 melanoma
  TGI: 90.9 µM
NCI-H226 lung
  TGI: > 100 µM
K-562 leukemia
  TGI: > 100 µM
KM12 colon
  TGI: > 100 µM
SF-295 CNS
  TGI: > 100 µM

## CC(=O)OC1C(COC(N)=O)OC(n2c(-c3ccc(C)cc3)cc(-c3ccccc3)c(C#N)c2=O)C(OC(C)=O)C1OC(C)=O (stereo not given)
UO-31 renal
  TGI: > 100 µM
LOX IMVI melanoma
  TGI: > 100 µM
MALME-3M melanoma
  TGI: > 100 µM
SF-539 CNS
  TGI: > 100 µM
UACC-62 melanoma
  TGI: > 100 µM
NCI-H226 lung
  TGI: > 100 µM
K-562 leukemia
  TGI: > 100 µM
KM12 colon
  TGI: > 100 µM
SF-295 CNS
  TGI: > 100 µM

## C=CCC1=C2CCCCC2CCC1=O (stereo not given)
UO-31 renal
  TGI: > 100 µM
LOX IMVI melanoma
  TGI: > 100 µM
MALME-3M melanoma
  TGI: > 100 µM
SF-539 CNS
  TGI: > 100 µM
UACC-62 melanoma
  TGI: > 100 µM
K-562 leukemia
  TGI: > 100 µM
KM12 colon
  TGI: > 100 µM
SF-295 CNS
  TGI: > 100 µM

## O=C(Cc1c(C(=O)Nc2ccccc2)sc(C(=O)Nc2ccccc2)c1CC(=O)Nc1ccccc1)Nc1ccccc1
UO-31 renal
  TGI: > 100 µM
LOX IMVI melanoma
  TGI: > 100 µM
MALME-3M melanoma
  TGI: > 100 µM
SF-539 CNS
  TGI: > 100 µM
UACC-62 melanoma
  TGI: > 100 µM
NCI-H226 lung
  TGI: > 100 µM
K-562 leukemia
  TGI: > 100 µM
KM12 colon
  TGI: > 100 µM
SF-295 CNS
  TGI: > 100 µM

## OCC(O)COc1ccc(F)cc1 (stereo not given)
UO-31 renal
  TGI: > 100 µM
LOX IMVI melanoma
  TGI: > 100 µM
MALME-3M melanoma
  TGI: > 100 µM
SF-539 CNS
  TGI: > 100 µM
UACC-62 melanoma
  TGI: > 100 µM
NCI-H226 lung
  TGI: > 100 µM
K-562 leukemia
  TGI: > 100 µM
KM12 colon
  TGI: > 100 µM
SF-295 CNS
  TGI: > 100 µM

## CC1=CC=C2C(C)(C)CC[C@@H]3OC(=O)[C@H]1[C@]23C
UO-31 renal
  TGI: > 100 µM
LOX IMVI melanoma
  TGI: > 100 µM
MALME-3M melanoma
  TGI: > 100 µM
SF-539 CNS
  TGI: > 100 µM
UACC-62 melanoma
  TGI: > 100 µM
NCI-H226 lung
  TGI: > 100 µM
K-562 leukemia
  TGI: > 100 µM
KM12 colon
  TGI: > 100 µM
SF-295 CNS
  TGI: > 100 µM

Reference: PubChem BioAssay (NCI)
